Results: patent publication US10894787B2, “Modulators of the GPR119 receptor and the treatment of disorders related thereto” (Arena Pharmaceuticals, Inc., priority 2010, dated 2021)

Assay: Dynamic moisture-sorption (DMS) analysis
Format: physicochemical
Conditions: at about 90% RH and 25° C.
Protocol: A dynamic moisture-sorption (DMS) study was conducted using a dynamic moisture-sorption analyzer, VTI Corporation, SGA-100. Samples were prepared for DMS analysis by placing 5 mg to 20 mg of a sample in a tared sample holder. The sample was placed on the hang-down wire of the VTI balance. A drying step was run, typically at 40° C. and 0.5-1% RH for 1 h. The isotherm temperature is 25° C. Defined % RH holds typically ranged from 10% RH to 90% RH, with intervals of 10 to 20% RH. A % weight change smaller than 0.010% over 10 min, or up to 2 h, whichever occurred first, was required before continuing to the next % RH hold. The water content of the sample equilibrated as described above was determined at each % RH hold.

## CN(C)C(=O)c1ccc(Nc2ncnc(N3CCC(c4nc(C(C)(C)F)no4)CC3)c2F)c(F)c1 [Compound 1 (Anhydrous Form), 3-fluoro-4-(5-fluoro-6-(4-(3-(2-fluoropropan-2-yl)-1,2,4-oxadiazol-5-yl)piperidin-1-yl)pyrimidin-4-ylamino)-N,N-dimethylbenzamide]
  DMS weight gain: FIG. 8: Less than about 0.35% weight gain at about 90% RH
